The target in data set [1] is T1, Keap1 (tag-free) (Homo sapiens, UniProt Q14145). The data set is described as follows: Assay-2: inhibitor dose response, full length Keap1. It is filed as binding. The note with it: for activity in Assay-2 (in words): 5 nM Cora-1-KL9, 150 nM CDDO-FITC, 5 nM Keap1.
The target in data set [2] is T1, Keap1 (tag-free). Briefly: Assay-1: inhibitor dose response, full length Keap1. It is filed as binding. The note with it: 5 nM Keap1, 3.5 nM each KL9 tracer, 4 h.
Data set [3] deals with wildtype Keap1 (tag-free) (Homo sapiens, UniProt Q14145). Briefly: Keap1 tracer saturation binding with wildtype Keap1. The settings on record: fixed Cora-1-KL9 (5 nM) and wildtype Keap1, one-site binding model.
Chain of wildtype Keap1 (tag-free) (Q14145 whole entry): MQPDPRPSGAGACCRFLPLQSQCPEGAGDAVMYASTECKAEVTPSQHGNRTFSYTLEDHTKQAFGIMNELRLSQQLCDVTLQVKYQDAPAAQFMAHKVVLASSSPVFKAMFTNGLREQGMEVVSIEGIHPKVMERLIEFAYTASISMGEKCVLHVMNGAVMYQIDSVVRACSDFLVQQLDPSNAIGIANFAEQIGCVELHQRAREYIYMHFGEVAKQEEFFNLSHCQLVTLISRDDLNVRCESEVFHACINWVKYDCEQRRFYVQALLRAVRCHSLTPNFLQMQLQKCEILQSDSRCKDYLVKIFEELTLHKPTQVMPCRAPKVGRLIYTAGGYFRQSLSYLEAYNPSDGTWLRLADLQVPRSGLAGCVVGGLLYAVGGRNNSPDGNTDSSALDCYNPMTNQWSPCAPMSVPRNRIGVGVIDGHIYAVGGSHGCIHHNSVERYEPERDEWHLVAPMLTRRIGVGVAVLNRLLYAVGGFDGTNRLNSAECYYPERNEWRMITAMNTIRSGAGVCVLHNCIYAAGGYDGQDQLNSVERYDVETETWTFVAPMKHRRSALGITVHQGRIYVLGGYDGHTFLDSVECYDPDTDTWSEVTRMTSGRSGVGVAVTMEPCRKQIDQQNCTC
The target in data set [4] is HDAC1-HT in HEK293T cells (Homo sapiens, UniProt Q13547). The data set is classed as cell-based. The settings on record: Cora-2-Halo labeled HEK293T cells expressing HDAC1-HT, 4 h at 37°C.
Chain of HDAC1-HT in HEK293T cells (Q13547 whole entry): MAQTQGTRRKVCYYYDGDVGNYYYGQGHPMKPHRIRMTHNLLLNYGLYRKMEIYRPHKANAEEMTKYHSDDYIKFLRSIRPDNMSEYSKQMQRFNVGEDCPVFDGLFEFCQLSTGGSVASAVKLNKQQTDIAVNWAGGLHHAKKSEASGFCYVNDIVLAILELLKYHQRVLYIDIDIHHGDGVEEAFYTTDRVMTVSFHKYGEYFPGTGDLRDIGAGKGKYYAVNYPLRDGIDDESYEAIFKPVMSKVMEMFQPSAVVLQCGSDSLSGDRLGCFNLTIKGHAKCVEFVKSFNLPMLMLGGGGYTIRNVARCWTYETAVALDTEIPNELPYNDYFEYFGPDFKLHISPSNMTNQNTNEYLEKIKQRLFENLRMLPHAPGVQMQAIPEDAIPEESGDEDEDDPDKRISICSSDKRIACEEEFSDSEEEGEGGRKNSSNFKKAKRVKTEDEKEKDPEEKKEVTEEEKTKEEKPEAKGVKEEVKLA

Counter-ions that a name gives are not always drawn.

T1 sequence (Q14145 whole entry): as the sequence (Q14145 whole entry) above

On to `COC(=O)[C@]12CCC(C)(C)C[C@H]1[C@H]1C(=O)C=C3[C@@]4(C)C=C(C#N)C(=O)C(C)(C)[C@@H]4CC[C@@]3(C)[C@]1(C)CC2` [CDDO-Me, bardoxolone methyl], for which the “activity in Assay-2 (in words)” value in data set [1] is given as “most potent competitors of CDDO-FITC”. Also, the “affinity in Assay-1 (no appreciable affinity below)” value in data set [2] is greater than 100 µM.
One may read the Kd as the constant that tells how readily two partners part at equilibrium. Low values mean a tighter complex, high ones a looser complex. As for `CC1(C)CC[C@]2(C(=O)NCCCOCCOCCOCCCNC(=S)Nc3ccc(-c4c5ccc(=O)cc-5oc5cc(O)ccc45)c(C(=O)O)c3)CC[C@]3(C)[C@H](C(=O)C=C4[C@@]5(C)C=C(C#N)C(=O)C(C)(C)[C@@H]5CC[C@]43C)[C@@H]2C1` [CDDO-FITC], the Kd in data set [3] amounted to 164 ± 37.1 nM.
Take `COC1=CC(=O)C(O)=C/C1=C\C=C\c1ccccc1` [OBT, obtusaquinone]: the “activity in Assay-1 (in words)” value in data set [2] is recorded as “micromolar activity”.
As to `O=C(CCCCCCC(=O)Nc1ccc(CNC(=O)c2ccc(C(=O)O)c(C3=c4cc5c6c(c4Oc4c3cc3c7c4CCCN7CCCC3)CCC[N+]=6CCCC5)c2)cc1)NO` [SAHA-NCT], the “TR-FRET signal in live cells / cell permeability (in words)” value in data set [4] was “specific and ligand concentration-dependent TR-FRET signal”.
As to `CC1(C)CC[C@]2(C(=O)O)CC[C@]3(C)[C@H](C(=O)C=C4[C@@]5(C)C=C(C#N)C(=O)C(C)(C)[C@@H]5CC[C@]43C)[C@@H]2C1` [CDDO], the “activity in Assay-2 (in words)” value in data set [1] is listed as “most potent competitors of CDDO-FITC”. The “activity in Assay-1 (in words)” value in data set [2] was “micromolar activity”.
For the molecule `COC(=O)/C=C/C(=O)OC` [dimethyl fumarate], in data set [2], the “affinity in Assay-1 (no appreciable affinity below)” value is greater than 100 µM.
As to `CC1=C(O)C(=O)C=C2C1=CC=C1[C@@]2(C)CC[C@@]2(C)[C@@H]3C[C@](C)(C(=O)O)CC[C@]3(C)CC[C@]12C` [celastrol], the “activity in Assay-1 (in words)” value in data set [2] is listed as “micromolar activity”.
On to `Cc1sc2c(c1C)C(c1ccc(Cl)cc1)=NC(CC(=O)NCCCOCCOCCOCCCNC(=O)[C@]13CCC(C)(C)C[C@H]1[C@H]1C(=O)C=C4[C@@]5(C)C=C(C#N)C(=O)C(C)(C)[C@@H]5CC[C@@]4(C)[C@]1(C)CC3)c1nnc(C)n1-2` (some centres unmarked) [CDDO-JQ1], for which the “fold less potent than CDDO” value in data set [1] (Assay-2) is greater than 500 fold. In addition, in data set [2], the “affinity in Assay-1 (no appreciable affinity below)” value is greater than 100 µM.
